Converted amounts (≈) assume the structure as drawn.
How the values were obtained:
Mycobacterium avium = experiment: Antimycobacterial activity against Mycobacterium avium (NIHJ1605); assay type: functional
[1] = system: Mycobacterium intracellulare; experiment: Antimycobacterial activity against Mycobacterium intracellular (ATCC 1954 E-3); assay type: functional
Mycobacterium kansasii = experiment: Antimycobacterial activity against Mycobacterium kansasii (ATCC12478); assay type: functional
[2] = system: Mycolicibacterium smegmatis; experiment: Antimycobacterial activity against Mycobacterium smegmatis (SANK 75075); assay type: functional
[3] = target: T1, Phospho-N-acetylmuramoyl-pentapeptide-transferase (Escherichia coli K-12, UniProt P0A6W3); experiment: Inhibitory activity against translocase I
T1 sequence (P0A6W3 whole entry): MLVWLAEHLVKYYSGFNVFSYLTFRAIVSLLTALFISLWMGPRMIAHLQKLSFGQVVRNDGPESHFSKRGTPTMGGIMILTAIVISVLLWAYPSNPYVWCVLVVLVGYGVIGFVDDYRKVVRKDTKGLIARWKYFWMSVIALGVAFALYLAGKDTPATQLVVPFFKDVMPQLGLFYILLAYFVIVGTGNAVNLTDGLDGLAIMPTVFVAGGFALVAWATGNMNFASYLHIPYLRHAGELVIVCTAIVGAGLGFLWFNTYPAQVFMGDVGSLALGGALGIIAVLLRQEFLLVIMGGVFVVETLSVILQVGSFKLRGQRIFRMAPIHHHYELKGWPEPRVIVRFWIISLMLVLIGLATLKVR

SMILES | MIC (Mycobacterium avium) | MIC [1] | MIC (Mycobacterium kansasii) | MIC [2] | IC50 [3]
NNC(=O)c1ccncc1 [ISONIAZID] | 1 µg/mL (≈ 7.29 µM) | 8 µg/mL (≈ 58.3 µM) | 2 µg/mL (≈ 14.6 µM) | – | –
CO[C@H]1/C=C/O[C@@]2(C)Oc3c(C)c(O)c4c(O)c(c(/C=N/N5CCN(C)CC5)c(O)c4c3C2=O)NC(=O)/C(C)=C\C=C\[C@H](C)[C@H](O)[C@@H](C)[C@@H](O)[C@@H](C)[C@H](OC(C)=O)[C@@H]1C [RIFAMPIN] | 0.125 µg/mL (≈ 0.152 µM) | 0.125 µg/mL (≈ 0.152 µM) | 0.25 µg/mL (≈ 0.304 µM) | – | –
CO[C@H]1[C@@H](O)[C@H](n2ccc(=O)[nH]c2=O)O[C@@H]1[C@@H](O[C@H]1OC(C(=O)N[C@H]2CCCCNC2=O)=C[C@H](O)[C@@H]1O)C(N)=O [CAPURAMYCIN] | 8 µg/mL (≈ 14 µM) | 8 µg/mL (≈ 14 µM) | 8 µg/mL (≈ 14 µM) | 12.5 µg/mL (≈ 21.9 µM) | 18 nM
CO[C@H]1[C@@H](O)[C@H](n2ccc(=O)[nH]c2=O)O[C@@H]1[C@@H](O[C@H]1OC(C(=O)Nc2ccc(Cl)cc2)=C[C@H](O)[C@@H]1O)C(N)=O | 4 µg/mL (≈ 7.03 µM) | 2 µg/mL (≈ 3.52 µM) | 16 µg/mL (≈ 28.1 µM) | 6.25 µg/mL (≈ 11 µM) | 31.6 nM
CO[C@H]1[C@@H](O)[C@H](n2ccc(=O)[nH]c2=O)O[C@@H]1[C@@H](O[C@H]1OC(C(=O)Nc2ccc(F)c(F)c2)=C[C@H](O)[C@@H]1O)C(N)=O | 2 µg/mL (≈ 3.51 µM) | 0.5 µg/mL (≈ 0.876 µM) | 8 µg/mL (≈ 14 µM) | 6.25 µg/mL (≈ 11 µM) | –
CO[C@H]1[C@@H](O)[C@H](n2ccc(=O)[nH]c2=O)O[C@@H]1[C@@H](O[C@H]1OC(C(=O)N[C@H]2CCC[C@@H](C)NC2=O)=C[C@H](O)[C@@H]1O)C(N)=O | 8 µg/mL (≈ 13.7 µM) | 4 µg/mL (≈ 6.85 µM) | 16 µg/mL (≈ 27.4 µM) | 6.25 µg/mL (≈ 10.7 µM) | –
CO[C@H]1[C@@H](O)[C@H](n2ccc(=O)[nH]c2=O)O[C@@H]1[C@@H](O[C@H]1OC(C(=O)Nc2ccccc2)=C[C@H](O)[C@@H]1O)C(N)=O | 16 µg/mL (≈ 29.9 µM) | 4 µg/mL (≈ 7.48 µM) | 8 µg/mL (≈ 15 µM) | 6.25 µg/mL (≈ 11.7 µM) | –
CO[C@H]1[C@@H](O)[C@H](n2ccc(=O)[nH]c2=O)O[C@@H]1[C@@H](O[C@H]1OC(C(=O)NCc2ccc(F)cc2)=C[C@H](O)[C@@H]1O)C(N)=O | – | – | – | 50 µg/mL (≈ 88.3 µM) | 353 nM
COc1ccccc1CNC(=O)C1=C[C@H](O)[C@H](O)[C@@H](O[C@@H](C(N)=O)[C@H]2O[C@@H](n3ccc(=O)[nH]c3=O)[C@H](O)[C@@H]2OC)O1 | – | – | – | 50 µg/mL (≈ 86.4 µM) | 484 nM
CO[C@H]1[C@@H](O)[C@H](n2ccc(=O)[nH]c2=O)O[C@@H]1[C@@H](O[C@H]1OC(C(=O)Nc2ccc(F)cc2F)=C[C@H](O)[C@@H]1O)C(N)=O | – | – | – | 12.5 µg/mL (≈ 21.9 µM) | 26.3 nM
CO[C@H]1[C@@H](O)[C@H](n2ccc(=O)[nH]c2=O)O[C@@H]1[C@@H](O[C@H]1OC(C(=O)NCCCCO)=C[C@H](O)[C@@H]1O)C(N)=O | – | – | – | > 100 µg/mL | 320 nM
COc1ccccc1CCNC(=O)C1=C[C@H](O)[C@H](O)[C@@H](O[C@@H](C(N)=O)[C@H]2O[C@@H](n3ccc(=O)[nH]c3=O)[C@H](O)[C@@H]2OC)O1 | – | – | – | 50 µg/mL (≈ 84.4 µM) | 54 nM
CO[C@H]1[C@@H](O)[C@H](n2ccc(=O)[nH]c2=O)O[C@@H]1[C@@H](O[C@H]1OC(C(=O)Nc2ccccc2OCc2ccccc2)=C[C@H](O)[C@@H]1O)C(N)=O | – | – | – | 25 µg/mL (≈ 39 µM) | 35.9 nM
CCCCCCNC(=O)C1=C[C@H](O)[C@H](O)[C@@H](O[C@@H](C(N)=O)[C@H]2O[C@@H](n3ccc(=O)[nH]c3=O)[C@H](O)[C@@H]2OC)O1 | – | – | – | 12.5 µg/mL (≈ 23 µM) | 55.3 nM
CO[C@H]1[C@@H](O)[C@H](n2ccc(=O)[nH]c2=O)O[C@@H]1[C@@H](O[C@H]1OC(C(=O)Nc2ccc(F)cc2)=C[C@H](O)[C@@H]1O)C(N)=O | 4 µg/mL (≈ 7.24 µM) | 2 µg/mL (≈ 3.62 µM) | 2 µg/mL (≈ 3.62 µM) | 6.25 µg/mL (≈ 11.3 µM) | 67 nM
CO[C@H]1[C@@H](O)[C@H](n2ccc(=O)[nH]c2=O)O[C@@H]1[C@@H](O[C@H]1OC(C(=O)Nc2cccc(F)c2F)=C[C@H](O)[C@@H]1O)C(N)=O | – | – | – | 12.5 µg/mL (≈ 21.9 µM) | 22.8 nM
CO[C@H]1[C@@H](O)[C@H](n2ccc(=O)[nH]c2=O)O[C@@H]1[C@@H](O[C@H]1OC(C(=O)Nc2nccs2)=C[C@H](O)[C@@H]1O)C(N)=O | – | – | – | 25 µg/mL (≈ 46.2 µM) | 33.2 nM
CO[C@H]1[C@@H](O)[C@H](n2ccc(=O)[nH]c2=O)O[C@@H]1[C@@H](O[C@H]1OC(C(=O)NCCc2ccccc2Cl)=C[C@H](O)[C@@H]1O)C(N)=O | – | – | – | 25 µg/mL (≈ 41.9 µM) | 46.9 nM
CCCCCCCCCCCCCCNC(=O)C1=C[C@H](O)[C@H](O)[C@@H](O[C@@H](C(N)=O)[C@H]2O[C@@H](n3ccc(=O)[nH]c3=O)[C@H](O)[C@@H]2OC)O1 | – | – | – | > 50 µg/mL | > 3820 nM
CO[C@H]1[C@@H](O)[C@H](n2ccc(=O)[nH]c2=O)O[C@@H]1[C@@H](O[C@H]1OC(C(=O)Nc2ccc([N+](=O)[O-])cc2)=C[C@H](O)[C@@H]1O)C(N)=O | – | – | – | 25 µg/mL (≈ 43.1 µM) | 69 nM
CO[C@H]1[C@@H](O)[C@H](n2ccc(=O)[nH]c2=O)O[C@@H]1[C@@H](O[C@H]1OC(C(=O)Nc2cccc(F)c2)=C[C@H](O)[C@@H]1O)C(N)=O | 2 µg/mL (≈ 3.62 µM) | 2 µg/mL (≈ 3.62 µM) | 8 µg/mL (≈ 14.5 µM) | 6.25 µg/mL (≈ 11.3 µM) | –
CO[C@H]1[C@@H](O)[C@H](n2ccc(=O)[nH]c2=O)O[C@@H]1[C@@H](O[C@H]1OC(C(=O)NCCc2cccs2)=C[C@H](O)[C@@H]1O)C(N)=O | – | – | – | 25 µg/mL (≈ 44 µM) | 22.9 nM
CO[C@H]1[C@@H](O)[C@H](n2ccc(=O)[nH]c2=O)O[C@@H]1[C@@H](O[C@H]1OC(C(=O)NCc2ccco2)=C[C@H](O)[C@@H]1O)C(N)=O | – | – | – | 100 µg/mL (≈ 186 µM) | 520 nM
CO[C@H]1[C@@H](O)[C@H](n2ccc(=O)[nH]c2=O)O[C@@H]1[C@@H](O[C@H]1OC(C(=O)N(C)c2ccccc2)=C[C@H](O)[C@@H]1O)C(N)=O | – | – | – | > 100 µg/mL | > 4560 nM
CO[C@H]1[C@@H](O)[C@H](n2ccc(=O)[nH]c2=O)O[C@@H]1[C@@H](O[C@H]1OC(C(=O)Nc2cccc(C)c2)=C[C@H](O)[C@@H]1O)C(N)=O | 4 µg/mL (≈ 7.29 µM) | 1 µg/mL (≈ 1.82 µM) | 8 µg/mL (≈ 14.6 µM) | 12.5 µg/mL (≈ 22.8 µM) | 13.9 nM
CO[C@H]1[C@@H](O)[C@H](n2ccc(=O)[nH]c2=O)O[C@@H]1[C@@H](O[C@H]1OC(C(=O)NCCc2ccccn2)=C[C@H](O)[C@@H]1O)C(N)=O | – | – | – | 25 µg/mL (≈ 44.4 µM) | 195 nM
COc1cc(CNC(=O)C2=C[C@H](O)[C@H](O)[C@@H](O[C@@H](C(N)=O)[C@H]3O[C@@H](n4ccc(=O)[nH]c4=O)[C@H](O)[C@@H]3OC)O2)cc(OC)c1OC | – | – | – | > 100 µg/mL | 658 nM
CCOc1ccccc1NC(=O)C1=C[C@H](O)[C@H](O)[C@@H](O[C@@H](C(N)=O)[C@H]2O[C@@H](n3ccc(=O)[nH]c3=O)[C@H](O)[C@@H]2OC)O1 | – | – | – | 50 µg/mL (≈ 86.4 µM) | 64 nM
CO[C@H]1[C@@H](O)[C@H](n2ccc(=O)[nH]c2=O)O[C@@H]1[C@@H](O[C@H]1OC(C(=O)Nc2ccc(Br)cc2)=C[C@H](O)[C@@H]1O)C(N)=O | 8 µg/mL (≈ 13 µM) | 0.5 µg/mL (≈ 0.815 µM) | 8 µg/mL (≈ 13 µM) | 6.25 µg/mL (≈ 10.2 µM) | 32.6 nM
